For orientation: pest or weed control means the degree to which the test organism was suppressed or injured, in per cent. Read a high pest or weed control as a strong effect.

For assay [1], the system named is Crabgrass (CG). As to the kind of experiment: Pre-emergence herbicide test. It is filed as in vivo, Digitaria sanquinalis. The note with it: two weeks after treatment; for pest or weed control at 4483.4 g/ha: 4 lb/acre. The protocol: (§1) Crabgrass (CG)--Digitaria sanquinalis
(§2) All crop and weed species were planted individually in 3' plastic pots containing potting soil. Four seeds each of corn, cotton, and snapbeans were seeded to a depth equal to the diameter of the seed. All other species were surface seeded and sprinkled with screened soil in an amount sufficient to cover the seed. Immediately after planting, all pots were watered by sub-irrigation in greenhouse trays. Pots for the pre-emergence phase were seeded one day before treatment.
(§3) Spray hood constants required to deliver the above volume are as follows:
(§4) Formulations for spray applications were prepared in 50 ml volumes with the following three components: […]
(§5) Spray applications were made in a hood containing a removable belt and fixed spray nozzle. For passage through the spray hood, one pot of each specie (pre-emergence phase) was placed on the rear half of the flat. Treatments were removed to the greenhouse after spraying. Watering during the observation period was done only by sub-irrigation.
(§6) Two weeks after treatment, pre- and post-emergence injury or control was visually rated, and the results were as shown in the following tables. Pre-emergence data are provided in TABLE III and post-emergence data are provided in TABLE IV, for compounds having the formula illustrated in TABLE I. Correspondingly, pre-emergence and post-emergence data, respectively, are set forth in TABLES V AND VI, for compounds having the formula illustrated in TABLE II.

The subject of assay [2] is Johnson grass (JG). As to the kind of experiment: Pre-emergence herbicide test. It is filed as in vivo, Sorgum helepense. The note with it: Sorghum halepense, 336 h, two weeks after treatment. On the procedure:
(§7) Johnson grass (JG)--Sorgum helepense
as §2
(§8) Compounds were tested at rates of application equivalent to 8 lbs. of actual compound per acre in a spray volume of 38 gallons per acre. Spray hood constants required to deliver the above volume are as follows:
(§9) Formulations for spray applications were prepared in 50 ml volumes with the following three components:
(§10) Formulations for the 4 lbs/acre rate were prepared by adjusting the amount of active ingredient accordingly.
as §5, §6

Assay [3] deals with Turnip (TP). In words: Pre-emergence herbicide test. It is filed as in vivo, Brassica sp. The note with it: two weeks after treatment; for pest or weed control at 4483.4 g/ha: 4 lb/acre. The protocol: (§11) Turnip (TP)--Brassica sp.
as §2, §3, §4, §5, §6

Assay [4] relates to Crabgrass (CG). In words: Post-emergence herbicide test. It is filed as in vivo, Digitaria sanquinalis. To be noted: two weeks after treatment; for pest or weed control at 4483.4 g/ha: 4 lb/acre; for pest or weed control at 1120.85 g/ha: 1 lb/acre; for pest or weed control: 2 lb/acre. On the procedure: as §1, §2
(§12) Planting dates for the post-emergence phase were varied so that all seedlings would reach the desired stage of development simultaneously. The proper stage of seedling development for treatment in the post-emergence phase is as follows:
as §3, §4, §5, §6

Assay [5] concerns Turnip (TP). As to the kind of experiment: Post-emergence herbicide test. In kind it is in vivo, Brassica sp. To be noted: two weeks after treatment; for pest or weed control at 4483.4 g/ha: 4 lb/acre; for pest or weed control at 2241.7 g/ha: 2 lb/acre; for pest or weed control at 1120.85 g/ha: 1 lb/acre. The protocol:
as §11, §2, §12
Pigweed and turnips: 1 or 2 true leaves above visible cotyledons.
as §3, §4, §5, §6

Assay [6] concerns Cotton (CT). As to the kind of experiment: Post-emergence herbicide test. It is filed as in vivo, Gossypium hirsutum var. DPL smooth leaf. The note with it: two weeks after treatment; for pest or weed control at 4483.4 g/ha: 4 lb/acre; for pest or weed control at 1120.85 g/ha: 1 lb/acre; for pest or weed control at 2241.7 g/ha: 2 lb/acre. On the procedure:
Cotton (CT)--Gossypium hirsutum var. DPL smooth leaf
as §2, §12
Cotton: first true leaf 1' in length; expanded cotyledons.
as §3, §9, §10, §5, §6

Assay [7] concerns Bean (BN). As to the kind of experiment: Post-emergence herbicide test. It is filed as in vivo, Phaseolus vulgaris var. Black Valentine. To be noted: two weeks after treatment; for pest or weed control at 4483.4 g/ha: 4 lb/acre; for pest or weed control at 1120.85 g/ha: 1 lb/acre; for pest or weed control at 2241.7 g/ha: 2 lb/acre. The protocol: Bean (BN)--Phaseolus vulgaris var. Black Valentine
as §2, §12
Beans: primary leaves expanded, growing point at primary leaf nodes.
as §3, §9, §10, §5, §6

Assay [8] deals with Johnson grass (JG). As to the kind of experiment: Post-emergence herbicide test. To be noted: Sorghum halepense, 336 h, two weeks after treatment; for pest or weed control at 4483.4 g/ha: 4 lb/acre; for pest or weed control at 1120.85 g/ha: 1 lb/acre; for pest or weed control: 2 lb/acre. It is filed as in vivo, Sorgum helepense. On the procedure:
as §7, §2, §12, §8, §9, §10, §5, §6

The test system of assay [9] is Barnyard grass (BG). In words: Post-emergence herbicide test. The note with it: Echinochloa crus-galli, 336 h, two weeks after treatment; for pest or weed control at 4483.4 g/ha: 4 lb/acre; for pest or weed control at 1120.85 g/ha: 1 lb/acre; for pest or weed control at 2241.7 g/ha: 2 lb/acre. It is filed as in vivo. On the procedure: (§13) Barnyard grass (BG)--Echinochloa crus-galli
as §2, §12, §8, §9, §10, §5, §6

Assay [10] deals with Corn (CN). As to the kind of experiment: Post-emergence herbicide test. The note with it: Zea mays, 336 h, two weeks after treatment; for pest or weed control at 4483.4 g/ha: 4 lb/acre; for pest or weed control at 1120.85 g/ha: 1 lb/acre; for pest or weed control: 2 lb/acre. In kind it is in vivo. On the procedure:
as §2, §12, §8, §9, §10, §5, §6

Assay [11] has as its system Barnyard grass (BG). As to the kind of experiment: Pre-emergence herbicide test. In kind it is in vivo. The note with it: Echinochloa crus-galli, 336 h, 4 lb/acre, two weeks after treatment. On the procedure:
as §13, §2, §8, §9, §10, §5, §6

The mark [12] stands for this setting: Digitaria sanguinalis, pre-emergence, 336 h.
The mark [13] stands for this setting: Brassica rapa, pre-emergence, 336 h.
[14] abbreviates: Digitaria sanguinalis, post-emergence, 336 h.
The mark [15] stands for this setting: Brassica rapa, post-emergence, 336 h.
Setting [16] is: Gossypium hirsutum, post-emergence, 336 h.
Where [17] appears, read: Phaseolus vulgaris, post-emergence, 336 h.

As for `CNC(=O)Nc1nnc(C(C)C)s1` [Example 82], the pest or weed control at 4483.4 g/ha was 30% in assay [1] (setting [12]); 0% in assay [2] (4 lb/acre); 20% in assay [3] (setting [13]); 50% in assay [4] (setting [14]); 80% in [5] (setting [15]); 80% in [6] (setting [16]). This compound registered a pest or weed control at 4483.4 g/ha in assay [7] (setting [17]) of 60%.

`CCCCCCS(=O)(=O)c1nnc(NC(=O)NC)s1` [Example 58]: the pest or weed control at 4483.4 g/ha in assay [4] (setting [14]) was found to be 50%; in assay [8], 30%; in assay [9], 20%; in [5] (setting [15]), 80%; in assay [6] (setting [16]), 50%; in [10], 20%. In addition, in [7] (setting [17]), the pest or weed control at 4483.4 g/ha is 70%.

In the case of `CNC(=O)Nc1nnc(SCc2ccccc2)s1` [Example 46], the pest or weed control at 4483.4 g/ha in assay [4] (setting [14]) turned out to be 70%; in assay [8], 70%; in [9], 70%; in assay [5] (setting [15]), 100%; in [6] (setting [16]), 100%; in assay [10], 30%. This compound also gave a pest or weed control at 4483.4 g/ha in [7] (setting [17]) of 90%.

In the case of `NC(=O)Nc1nnc(C(F)(F)F)s1` [Example 70], the “Pre-emergence activity, % control, CG” value in assay [1] (5 lb/acre) and in assay [1] (10 lb/acre) was 10% in each case. Further, the “Pre-emergence activity, % control, TP” value in assay [3] (5 lb/acre) and in assay [3] (10 lb/acre) was 10% in each case. The “Post-emergence activity, % control, CG” value in assay [4] (5 lb/acre) and in [4] (10 lb/acre) was 20% throughout. Moreover, the “Post-emergence activity, % control, TP” value in assay [5] (5 lb/acre) and in assay [5] (10 lb/acre) was 80% throughout. The “Post-emergence activity, % control, CT” value in assay [6] (5 lb/acre) and in assay [6] (10 lb/acre) was 20% in each case. The “Post-emergence activity, % control, BN” value in [7] (5 lb/acre) and in [7] (10 lb/acre) was 50% in each case.

On to `Cc1nnc(NC(N)=O)s1` [Example 84, reference compound], for which the pest or weed control at 11208.5 g/ha in [1] (Digitaria sanguinalis, pre-emergence, 336 h, 10 lb/acre) was 0%; in [2] (10 lb/acre), 50%; in [3] (Brassica rapa, pre-emergence, 336 h, 10 lb/acre) it was 0%; in assay [4] (Digitaria sanguinalis, post-emergence, 336 h, 10 lb/acre) it was 20%; in assay [5] (Brassica rapa, post-emergence, 336 h, 10 lb/acre), 80%; in [6] (Gossypium hirsutum, post-emergence, 336 h, 10 lb/acre) it was 20%. Besides, the pest or weed control at 11208.5 g/ha in [7] (Phaseolus vulgaris, post-emergence, 336 h, 10 lb/acre) came to 50%.

For the compound `CCCCCSc1nnc(NC(=O)NC)s1` [Example 59], the pest or weed control at 4483.4 g/ha turned out to be 90% in assay [4] (setting [14]); 80% in [8]; 70% in assay [9]; 100% in assay [5] (setting [15]); 100% in assay [6] (setting [16]); 40% in [10]. Also, in assay [7] (setting [17]), the pest or weed control at 4483.4 g/ha was 100%.

`CCCCCS(=O)(=O)c1nnc(NC(=O)NC)s1` [Example 64]: the pest or weed control at 4483.4 g/ha stood at 90% in assay [4] (setting [14]); 50% in assay [8]; 60% in assay [9]; 90% in assay [5] (setting [15]); 70% in assay [6] (setting [16]); 30% in [10]. Besides, the pest or weed control at 4483.4 g/ha in assay [7] (setting [17]) worked out at 90%.

As to `CNC(=O)Nc1nnc(C2CC2)s1` [Example 85], the pest or weed control at 4483.4 g/ha stood at 0% in assay [1] (setting [12]); 0% in assay [11]; 0% in [3] (setting [13]); 30% in assay [4] (setting [14]); 60% in assay [5] (setting [15]); 80% in assay [6] (setting [16]). In assay [7] (setting [17]), this compound showed a pest or weed control at 4483.4 g/ha of 50%.

For `CCCCCCSc1nnc(NC(=O)NC)s1` [Example 60], the pest or weed control at 4483.4 g/ha in [4] (setting [14]) was 80%; in assay [8] it was 70%; in assay [9], 40%; in assay [5] (setting [15]), 100%; in assay [6] (setting [16]), 70%; in assay [10], 60%. Further, in assay [7] (setting [17]), the pest or weed control at 4483.4 g/ha came out at 100%. In assay [5] (setting [15]), this compound had a pest or weed control at 2241.7 g/ha of 100%.

As to `CNC(=O)Nc1nnc(SCC(C)C)s1` [Example 44], the pest or weed control at 1120.85 g/ha worked out at 80% in [4] (setting [14]); 60% in [8]; 80% in [9]; 40% in [5] (setting [15]); 100% in assay [6] (setting [16]); 60% in assay [10]. The same compound came in with a pest or weed control at 1120.85 g/ha in [7] (setting [17]) of 80%. For the same compound, the pest or weed control amounted to 90% in [4] (setting [14]), 80% in [8] and 60% in assay [10]. For the same compound, the pest or weed control at 2241.7 g/ha in assay [9] was 90%; in assay [5] (setting [15]) it was 80%; in [6] (setting [16]) it was 100%; in [7] (setting [17]) it was 100%.

In the case of `CCCCSc1nnc(NC(=O)NC)s1` [Example 45], the pest or weed control at 1120.85 g/ha in assay [4] (setting [14]) was 90%; in [8] it was 60%; in assay [9] it was 90%; in assay [5] (setting [15]), 50%; in assay [6] (setting [16]) it was 100%; in [10] it was 70%. The compound further yielded a pest or weed control at 1120.85 g/ha in assay [7] (setting [17]) of 90%. For the same compound, the pest or weed control stood at 90% in assay [4] (setting [14]), 90% in assay [8] and 60% in assay [10]. The pest or weed control at 2241.7 g/ha in assay [9] stood at 80%; in [5] (setting [15]), 70%; in assay [6] (setting [16]) it was 100%; in [7] (setting [17]), 100%.

`CCCCS(=O)(=O)c1nnc(NC(=O)NC)s1` [Example 65]: the pest or weed control at 4483.4 g/ha in [4] (setting [14]) came to 90%; in assay [8] it was 60%; in [9], 90%; in assay [5] (setting [15]) it was 100%; in [6] (setting [16]), 70%; in assay [10] it was 30%. Besides, the pest or weed control at 4483.4 g/ha in assay [7] (setting [17]) was found to be 100%.

These data come from US4175081A, “5-Substituted thiadiazole ureas” (priority 1977, dated 1979).
